Data: ChEMBL document CHEMBL5316319, “Targeting Death-Associated Protein Kinases for Treatment of Human Diseases: Recent Advances and Future Directions” (J Med Chem, 2023)
One block for each compound: values may come before it.

Assays:
[1] = target: T1, Serine/threonine-protein kinase 17B (Homo sapiens, UniProt O94768); assay: Inhibition of recombinant GST-tagged DRAK2 (unknown origin) by promega ADP-Glo assay
T1 sequence (O94768 whole entry): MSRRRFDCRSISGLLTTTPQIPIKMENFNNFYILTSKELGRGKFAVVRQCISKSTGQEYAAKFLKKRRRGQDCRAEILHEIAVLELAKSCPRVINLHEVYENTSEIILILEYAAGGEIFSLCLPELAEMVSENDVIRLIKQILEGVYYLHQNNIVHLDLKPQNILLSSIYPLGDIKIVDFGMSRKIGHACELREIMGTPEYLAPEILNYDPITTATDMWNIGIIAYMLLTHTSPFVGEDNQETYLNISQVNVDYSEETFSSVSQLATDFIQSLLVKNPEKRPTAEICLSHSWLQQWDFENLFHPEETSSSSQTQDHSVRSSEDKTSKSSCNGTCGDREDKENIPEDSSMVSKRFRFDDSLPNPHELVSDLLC

[2] = target: T1, Serine/threonine-protein kinase 17B; assay: Binding affinity to DRAK2 (unknown origin) assessed as dissociation constant
[3] = target: T2, Death-associated protein kinase 1 (Homo sapiens, UniProt P53355); assay: Inhibition of DAPK1 (unknown origin) in presence of 33P-ATP radiolabeled kinase assay
[4] = target: T2, Death-associated protein kinase 1; assay: Inhibition of DAPK1 (1 to 285 residues) (unknown origin) expressed in Escherichia coli using KKLNRTLSFAEPG as substrate in presence of ATP by fluoro-spark kinase assay
[5] = target: T2, Death-associated protein kinase 1; assay: Inhibition of DAPK1 (unknown origin)
[6] = target: T3, Serine/threonine-protein kinase 17A (Homo sapiens, UniProt Q9UEE5); assay: Inhibition of DRAK1 (unknown origin)
T3 sequence (Q9UEE5 whole entry): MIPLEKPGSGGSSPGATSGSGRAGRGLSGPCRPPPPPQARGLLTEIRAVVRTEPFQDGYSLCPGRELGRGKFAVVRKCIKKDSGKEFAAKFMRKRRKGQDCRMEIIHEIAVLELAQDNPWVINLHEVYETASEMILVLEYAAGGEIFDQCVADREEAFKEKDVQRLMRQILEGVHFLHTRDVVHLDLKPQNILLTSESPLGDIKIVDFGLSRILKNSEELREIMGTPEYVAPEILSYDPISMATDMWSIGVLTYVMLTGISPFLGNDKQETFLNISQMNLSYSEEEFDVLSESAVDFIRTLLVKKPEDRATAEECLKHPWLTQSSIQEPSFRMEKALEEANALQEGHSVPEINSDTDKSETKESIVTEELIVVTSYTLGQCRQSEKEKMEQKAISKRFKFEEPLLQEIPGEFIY

[7] = target: T1, Serine/threonine-protein kinase 17B; assay: Inhibition of DRAK2 (unknown origin)
[8] = target: T4, Death-associated protein kinase 3 (Homo sapiens, UniProt O43293); assay: Inhibition of DAPK3 (unknown origin)
[9] = target: T5, Serine/threonine-protein kinase pim-3 (Homo sapiens, UniProt Q86V86); assay: Inhibition of PIM3 (unknown origin) at 10 uM by (33P-ATP) filter-binding assay relative to control
[10] = target: T2, Death-associated protein kinase 1; assay: Inhibition of DAPK1 (unknown origin) at 10 uM by (33P-ATP) filter-binding assay relative to control
[11] = target: Death-associated protein kinase 2 (Homo sapiens, UniProt Q9UIK4); assay: Binding affinity to DAPK2 (unknown origin) assessed as dissociation constant
[12] = target: T4, Death-associated protein kinase 3; assay: Binding affinity to DAPK3 (unknown origin) assessed as dissociation constant
[13] = target: T4, Death-associated protein kinase 3; assay: Inhibition of human recombinant GST-fused DAPK3 (1 to 320 residues) expressed in Escherichia coli BL21 (DE3) assessed as inhibition constant using MYPT1 as peptide substrate incubated for 10 mins in presence of [gamma-32P]ATP by radiometric scintillation assay
[14] = target: Serine/threonine-protein kinase pim-1 (Homo sapiens, UniProt P11309); assay: Inhibition of human full length-His6 tagged PIM1 (1 to 312 residues) expressed in Escherichia coli BL21 (DE3) assessed as inhibition constant using RSRHSSYPAGT as peptide substrate incubated for 10 mins in presence of [gamma-32P]ATP by radiometric scintillation assay
[15] = target: Serine/threonine-protein kinase pim-2 (Homo sapiens, UniProt Q9P1W9); assay: Inhibition of human full length-His6 tagged PIM2 (1 to 311 residues) expressed in Escherichia coli BL21 (DE3) assessed as inhibition constant using RSRHSSYPAGT as peptide substrate incubated for 10 mins in presence of [gamma-32P]ATP by radiometric scintillation assay
[16] = target: T5, Serine/threonine-protein kinase pim-3; assay: Inhibition of human full length-His6 tagged PIM3 (1 to 326 residues) expressed in Escherichia coli BL21 (DE3) assessed as inhibition constant using RSRHSSYPAGT as peptide substrate incubated for 10 mins in presence of [gamma-32P]ATP by radiometric scintillation assay

IC50 [1]: 11600 nM
SMILES: COC(=O)C1=C2Nc3ccccc3C23CC2N(C)[C@H]3C[C@H]1[C@@]2(C)C(C)=O (stereo not given in full)

Kd [2]: 250 nM
SMILES: Nc1c(-c2n[nH]c(=S)o2)sc2ccc(Cl)cc12

SMILES: Cc1nc2c(OCc3ccccc3)ncnc2n1C(C)C
IC50 [3]: 23000 nM

SMILES: CC(C)(C)n1c(-c2ccccc2)nc2c(OCc3ccccc3)ncnc21
IC50 [3]: 2500 nM

SMILES: O=C1c2ccccc2C(=O)c2c(O)c(O)cc(O)c21 [PURPURIN]
IC50 [4]: 890 nM

SMILES: c1ccc(COc2ncnc3c2ncn3Cc2ccccc2)cc1
IC50 [3]: 5900 nM

SMILES: CCc1ccccc1-c1nn(CCCCCCCCCCC(=O)Nc2cnnc(-c3ccccc3)c2)c(=N)cc1C
IC50 [5]: 13000 nM

SMILES: Nc1c(O)c(S(=O)(=O)O)c(O)c2c1C(=O)c1ccccc1C2=O
IC50 [4]: 9600 nM

IC50 [6]: 100 nM | IC50 [7]: 10 nM
SMILES: COc1cnc(Nc2ccc(CS(C)(=O)=O)cc2)nc1Nc1cc(C2CC2)[nH]n1
IC50 [5]: 370 nM | IC50 [8]: 310 nM

Kd [2]: 8 nM
SMILES: Nc1c(-c2n[nH]c(=S)o2)sc2ncc(-c3ccsc3)cc12

inhibition [9]: 76% | Ki [14]: 2940 nM | Ki [15]: 208 nM | Ki [16]: > 100000 nM
SMILES: CC(Sc1nc2c(cnn2-c2cccc(Cl)c2)c(=O)[nH]1)C(N)=O (stereo not given)
inhibition [10]: 89% | Kd [11]: 79 nM | Kd [12]: 280 nM | Ki [13]: 260 nM

Ki [14]: 6310 nM | Ki [15]: > 100000 nM | Ki [16]: 2500 nM
SMILES: CC(C)(Sc1nc2c(cnn2-c2ccccc2)c(=O)[nH]1)C(N)=O
Ki [13]: 126 nM

SMILES: COc1cc(-c2ccc3ncc(-c4ccc(C(=O)NCCN(C)C)cc4)n3n2)ccc1O
IC50 [5]: 247 nM

Ki [14]: 6480 nM | Ki [15]: > 100000 nM | Ki [16]: 1070 nM
SMILES: CCC(Sc1nc2c(cnn2-c2cccc(F)c2)c(=O)[nH]1)C(N)=O (stereo not given)
Ki [13]: 119 nM

Ki [14]: 1480 nM | Ki [15]: 17300 nM | Ki [16]: 72 nM
SMILES: N#CCSc1nc2c(cnn2-c2cccc(Cl)c2)c(=O)[nH]1
Ki [13]: 315 nM

SMILES: O=C1c2ccccc2C(=O)c2c1ccc(O)c2O [ATHRAQUINONES A]
IC50 [4]: 3600 nM
